Measured values: patent US7569700B2, “Substituted, bicyclic 8-pyrrolidinobenzimidazoles, methods for their production and their use as medicaments” (sanofi - aventis, priority 2005, dated 2009)

Target: T1, DPP-IV from porcine kidneys (Sus scrofa, UniProt P22411)
T1 construct: DPP-IV from porcine kidneys (Sigma, Munich); purchased Sigma, Munich; host or cells: porcine kidney (tissue-derived enzyme)
Assay: Measurement of the DPP-IV activity (fluorimetric conversion of H-Ala-Pro-AFC)
Assay type: biochemical
Settings: at 30 μm compound; DPP-IV 1 mU/ml, H-Ala-Pro-AFC 15 μm, Tris/HCl pH 7.4, room temperature
Protocol: Measurement of the DPP-IV Activity:
DPP-IV from porcine kidneys (Sigma, Munich)
H-Ala-Pro-AFC (Bachem, Weil am Rhein)
DPP-IV (1 mU/ml, end concentration)
H-Ala-Pro-AFC (15 μm end concentration) in Tris/HCl (40 mM, pH 7.4), total volume 0.2 ml
The reaction was performed at room temperature for different periods (typically 10 minutes) and stopped at the end of the reaction by adding 20 μl of ZnCl2 (1 M). The conversion of H-Ala-Pro-AFC was determined fluorimetrically by measuring the emission at 535 nm on excitation at 405 nm. In the case of addition of inhibitors, the buffer volume added was adjusted such that a total volume of the test mixture of 200 μl was maintained.
% inhibition at a fixed concentration was calculated as follows: (1-enzyme activityinhibited reaction/enzyme activityuninhibited reaction)×100

T1 sequence (P22411 whole entry): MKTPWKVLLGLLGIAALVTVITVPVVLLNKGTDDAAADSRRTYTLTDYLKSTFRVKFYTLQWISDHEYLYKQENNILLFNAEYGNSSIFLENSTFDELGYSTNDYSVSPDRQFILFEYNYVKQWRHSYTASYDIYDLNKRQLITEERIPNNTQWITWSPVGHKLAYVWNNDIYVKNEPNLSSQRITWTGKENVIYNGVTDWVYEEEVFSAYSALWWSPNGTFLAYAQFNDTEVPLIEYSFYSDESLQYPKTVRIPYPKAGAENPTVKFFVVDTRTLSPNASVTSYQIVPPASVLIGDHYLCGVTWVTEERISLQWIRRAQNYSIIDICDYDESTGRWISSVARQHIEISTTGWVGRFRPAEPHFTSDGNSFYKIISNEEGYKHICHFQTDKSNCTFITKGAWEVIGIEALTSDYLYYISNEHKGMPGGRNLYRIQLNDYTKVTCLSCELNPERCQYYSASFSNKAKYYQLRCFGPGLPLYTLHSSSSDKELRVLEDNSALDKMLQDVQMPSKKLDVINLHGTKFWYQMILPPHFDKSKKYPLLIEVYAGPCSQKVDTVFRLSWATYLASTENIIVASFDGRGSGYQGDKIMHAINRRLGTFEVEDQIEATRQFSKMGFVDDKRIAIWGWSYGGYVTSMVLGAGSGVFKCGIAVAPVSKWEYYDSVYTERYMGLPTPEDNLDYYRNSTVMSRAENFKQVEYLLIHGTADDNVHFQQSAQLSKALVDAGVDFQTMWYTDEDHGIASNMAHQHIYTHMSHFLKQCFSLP

CC(C)=CCn1c(N2CCC3CNCC32)nc2ccc(NC(=O)c3ccccc3)cc21 (stereo not shown) [Example 1] was tested, and the “% inhibition at 30 μm” value was 25%.
